Data from patent publication US10604489B2, “Compounds for the treatment of pain” (priority 2018, dated 2020).
pEC50, pKi: −log10 of the molar value. Where a name gives a salt, the structure may show the parent alone.

Experiments:
μ-receptor = μ-receptor (Homo sapiens (Human), UniProt P35372); assay: Receptor binding, competitive displacement of [3H]DAMGO; conditions: 0.25 nM [3H]DAMGO, CHO cell membrane protein, 60 min at 25° C.
Method in brief: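 Membranes from CHO cells stably expressing cloned human μ-opioid receptor incubated 60 min at 25 °C with 12 compound concentrations and 0.25 nM [3H]DAMGO in 50 mM Tris-HCl pH 7.5; nonspecific binding with 10 μM naloxone. Filtration and scintillation counting; Ki from IC50 by Cheng-Prusoff.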

human μ opioid receptor = human μ opioid receptor (Homo sapiens (Human), UniProt P35372); assay: Functional activity ([35S]GTPγS binding); format: biochemical; conditions: [35S]GTPγS 0.080 nM, CHO cell membranes, 60 min at 30° C., filtration
Method in brief: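 Membranes from stably transfected CHO cells (7.5 μg) incubated with 12 test-compound concentrations and 0.080 nM [35S]GTPγS in 50 mM Tris-HCl pH 7.4, 3 mM MgCl2, 0.2 mM EGTA, 3 μM GDP, 100 mM NaCl, 60 min at 30° C. Nonspecific binding defined with 10 μM GTPγS; bound label collected by filtration and scintillation counting.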

COC1(c2ccnc(C(N)=O)c2)C2CCCC1CN(CCN1CCCS1(=O)=O)C2 [Compound 88, 4-((1R,5S,9r)-3-(2-(1,1-dioxidoisothiazolidin-2-yl)ethyl)-9-methoxy-3-azabicyclo[3.3.1]nonan-9-yl)picolinamide hydrochloride]
pKi (μ-receptor): 8.30 to 9.00 | pEC50 (human μ opioid receptor): < 7.12

COC1(c2ccnc(C(N)=O)c2)C2CCCC1CN(C1CC(c3ccccc3)C1)C2 [Compound 89, 4-((1R,5S,9R)-9-methoxy-3-((1s,3S)-3-phenylcyclobutyl)-3-azabicyclo[3.3.1]nonan-9-yl)picolinamide hydrochloride]
pKi (μ-receptor): > 9.00 | pEC50 (human μ opioid receptor): > 8.00

COC1(c2ccnc(C(N)=O)c2)C2CCCC1CN(C1CCC1)C2 [Compound 90, 4-((1R,5S,9r)-3-cyclobutyl-9-methoxy-3-azabicyclo[3.3.1]nonan-9-yl)picolinamide hydrochloride]
pKi (μ-receptor): 8.30 to 9.00 | pEC50 (human μ opioid receptor): 7.12 to 8.00

COC1(c2ccnc(C(N)=O)c2)C2CCCC1CN(CC(C)C)C2 [Compound 92, 4-((1R,5S,9r)-3-isobutyl-9-methoxy-3-azabicyclo[3.3.1]nonan-9-yl)picolinamide hydrochloride]
pKi (μ-receptor): < 8.30 | pEC50 (human μ opioid receptor): < 7.12

COC1(c2ccnc(C(N)=O)c2)C2CCCC1CN([C@@H]1C[C@H]3C[C@H]3C1)C2 (stereo partly drawn) [Compound 93, 4-((1R,5S,9R)-3-((1R,3r,5S)-bicyclo[3.1.0]hexan-3-yl)-9-methoxy-3-azabicyclo[3.3.1]nonan-9-yl)picolinamide hydrochloride]
pKi (μ-receptor): 8.30 to 9.00 | pEC50 (human μ opioid receptor): 7.12 to 8.00

COC1(c2ccnc(C(N)=O)c2)C2CCCC1CN([C@H]1C[C@H]3C[C@H]3C1)C2 (stereo partly drawn) [Compound 94, 4-((1R,5S,9R)-3-((1R,3s,5S)-bicyclo[3.1.0]hexan-3-yl)-9-methoxy-3-azabicyclo[3.3.1]nonan-9-yl)picolinamide hydrochloride]
pKi (μ-receptor): > 9.00 | pEC50 (human μ opioid receptor): 7.12 to 8.00

COC1(c2ccc(C(N)=O)s2)C2CCCC1CN(CCN1CCNC1=O)C2 [Compound 95, 5-((1R,5S,9r)-9-methoxy-3-(2-(2-oxoimidazolidin-1-yl)ethyl)-3-azabicyclo[3.3.1]nonan-9-yl)thiophene-2-carboxamide (S)-2-hydroxysuccinate]
pKi (μ-receptor): 8.30 to 9.00 | pEC50 (human μ opioid receptor): < 7.12

COC1(c2ccc(C(N)=O)s2)C2CCCC1CN(CCN1CCCS1(=O)=O)C2 [Compound 97, 5-((1R,5S,9r)-3-(2-(1,1-dioxidoisothiazolidin-2-yl)ethyl)-9-methoxy-3-azabicyclo[3.3.1]nonan-9-yl)thiophene-2-carboxamide (S)-2-hydroxysuccinate]
pKi (μ-receptor): > 9.00 | pEC50 (human μ opioid receptor): 7.12 to 8.00

COC1(c2ccc(C(N)=O)s2)C2CCCC1CN(CCN1CCOC1=O)C2 [Compound 98, 5-((1R,5S,9r)-9-methoxy-3-(2-(2-oxooxazolidin-3-yl)ethyl)-3-azabicyclo[3.3.1]nonan-9-yl)thiophene-2-carboxamide (S)-2-hydroxysuccinate]
pKi (μ-receptor): < 8.30 | pEC50 (human μ opioid receptor): 7.12 to 8.00

COC1(c2ccnc(C(N)=O)c2)C2CCCC1CN(Cc1ncc[nH]1)C2 [Compound 99, 4-((1R,5S,9r)-3-((1H-imidazol-2-yl)methyl)-9-methoxy-3-azabicyclo[3.3.1]nonan-9-yl)picolinamide hydrochloride]
pKi (μ-receptor): 8.30 to 9.00 | pEC50 (human μ opioid receptor): 7.12 to 8.00

COC1(c2ccnc(C(N)=O)c2)C2CCCC1CN(Cc1ccn[nH]1)C2 [Compound 100, 4-((1R,5S,9r)-3-((1H-pyrazol-5-yl)methyl)-9-methoxy-3-azabicyclo[3.3.1]nonan-9-yl)picolinamide hydrochloride]
pKi (μ-receptor): > 9.00 | pEC50 (human μ opioid receptor): 7.12 to 8.00

COC1(c2ccc(C(N)=O)s2)C2CCCC1CN(C1CCCCC1)C2 [Compound 101, 5-((1R,5S,9r)-3-cyclohexyl-9-methoxy-3-azabicyclo[3.3.1]nonan-9-yl)thiophene-2-carboxamide hydrochloride]
pKi (μ-receptor): 8.30 to 9.00 | pEC50 (human μ opioid receptor): < 7.12

COC1(c2ccnc(C(N)=O)c2)C2CCCC1CN(C[C@H]1C[C@@H]3C[C@@H]3C1)C2 (stereo partly drawn) [Compound 102, 4-((1R,5S,9R)-3-((1R,3r,5S)-bicyclo[3.1.0]hexan-3-ylmethyl)-9-methoxy-3-azabicyclo[3.3.1]nonan-9-yl)picolinamide hydrochloride]
pKi (μ-receptor): > 9.00 | pEC50 (human μ opioid receptor): 7.12 to 8.00

COC1(c2ccnc(C(N)=O)c2)C2CCCC1CN(C13CC(C1)C3)C2 [Compound 103, 4-((1R,5S,9r)-3-(bicyclo[1.1.1]pentan-1-yl)-9-methoxy-3-azabicyclo[3.3.1]nonan-9-yl)picolinamide hydrochloride]
pKi (μ-receptor): 8.30 to 9.00 | pEC50 (human μ opioid receptor): < 7.12

COC1(c2ccnc(C(N)=O)c2)C2CCCC1CN(C13CC(c4ccccc4)(C1)C3)C2 [Compound 106, 4-((1R,5S,9r)-9-methoxy-3-(3-phenylbicyclo[1.1.1]pentan-1-yl)-3-azabicyclo[3.3.1]nonan-9-yl)picolinamide hydrochloride]
pKi (μ-receptor): > 9.00 | pEC50 (human μ opioid receptor): > 8.00

COC1(c2ccnc(C(N)=O)c2)C2CCCC1CN(C(C)(C)C)C2 [Compound 107, 4-((1R,5S,9r)-3-(tert-butyl)-9-methoxy-3-azabicyclo[3.3.1]nonan-9-yl)picolinamide hydrochloride]
pKi (μ-receptor): 8.30 to 9.00 | pEC50 (human μ opioid receptor): < 7.12

COC1(c2ccnc(C(N)=O)c2)C2CCCC1CN([C@@H]1CC[C@H]1c1ccccc1)C2 (stereo partly drawn) [Compound 109, 4-((1R,5S,9R)-9-methoxy-3-((1R,2S)-2-phenylcyclobutyl)-3-azabicyclo[3.3.1]nonan-9-yl)picolinamide hydrochloride]
pKi (μ-receptor): > 9.00 | pEC50 (human μ opioid receptor): > 8.00

COC1(c2ccnc(C(N)=O)c2)C2CCCC1CN(C1CCCOC1)C2 [Compound 111, 4-((1R,5S,9r)-9-methoxy-3-(tetrahydro-2H-pyran-3-yl)-3-azabicyclo[3.3.1]nonan-9-yl)picolinamide hydrochloride]
pKi (μ-receptor): < 8.30 | pEC50 (human μ opioid receptor): < 7.12

COC1(c2ccc(C(N)=O)s2)C2CCCC1CN(C13CC(C1)C3)C2 [Compound 112, 5-((1R,5S,9r)-3-(bicyclo[1.1.1]pentan-1-yl)-9-methoxy-3-azabicyclo[3.3.1]nonan-9-yl)thiophene-2-carboxamide hydrochloride]
pKi (μ-receptor): 8.30 to 9.00 | pEC50 (human μ opioid receptor): < 7.12

COC1(c2ccnc(C(N)=O)c2)C2CCCC1CN(Cc1ncco1)C2 [Compound 113, 4-((1R,5S,9r)-9-methoxy-3-(oxazol-2-ylmethyl)-3-azabicyclo[3.3.1]nonan-9-yl)picolinamide hydrochloride]
pKi (μ-receptor): < 8.30 | pEC50 (human μ opioid receptor): < 7.12

COC1(c2ccc(C(N)=O)s2)C2CCCC1CN(C1CN(C(C)=O)C1)C2 [Compound 114, 5-((1R,5S,9r)-3-(1-acetylazetidin-3-yl)-9-methoxy-3-azabicyclo[3.3.1]nonan-9-yl)thiophene-2-carboxamide hydrochloride]
pKi (μ-receptor): < 8.30 | pEC50 (human μ opioid receptor): < 7.12

COC1(c2ccnc(C(N)=O)c2)C2CCCC1CN(Cc1cnco1)C2 (stereo not shown) [Compound 115, hydrochloride]
pKi (μ-receptor): 8.30 to 9.00 | pEC50 (human μ opioid receptor): 7.12 to 8.00

COC1(c2ccnc(C(N)=O)c2)C2CCCC1CN([C@H]1CC[C@@H]1c1ccccc1)C2 (stereo partly drawn) [Compound 117, 4-((1R,5S,9s)-9-methoxy-3-((1S,2R)-2-phenylcyclobutyl)-3-azabicyclo[3.3.1]nonan-9-yl)picolinamide hydrochloride]
pKi (μ-receptor): 8.30 to 9.00 | pEC50 (human μ opioid receptor): 7.12 to 8.00
